# According to US10611731B2, “5-methyl-6-phenyl-4,5-dihydro-2H-pyridazin-3-one derivative” (OTSUKA PHARMACEUTICAL CO., LTD., priority 2016, dated 2020):
# Test system: human childhood brain tumor cell lines (PFSK-1)
# Test: Growth inhibitory activity against PFSK-1 cells (WST-8, Cell Counting Kit-8)
# Assay type: cell-based
# Details: Homo sapiens, 72 h, 3 days incubation with test compound, WST-8 OD 450/630 nm, read-out: IC50 (concentration inhibiting 50% of the cell growth)
# Summary of the method: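 Cells seeded in RPMI 1640 with 10% FBS and preincubated 24 h at 37 °C, 5% CO2, then exposed to compound for 3 days. IC50 (nM) from growth relative to untreated control.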
row,IC50,SMILES
1,5.2 nM,"CC(O)COc1ccc(C2=NNC(=O)CC2C)c(F)c1C#N (centres unmarked) [Example 104, 2-fluoro-6-(2-hydroxypropoxy)-3-(4-methyl-6-oxo-4,5-dihydro-1H-pyridazin-3-yl)benzonitrile]"
2,6.4 nM,"CC1CC(=O)NN=C1c1ccc(OCCCO)c(C#N)c1F (centres unmarked) [Example 106, 2-fluoro-6-(3-hydroxypropoxy)-3-(4-methyl-6-oxo-4,5-dihydro-1H-pyridazin-3-yl)benzonitrile]"
3,4.1 nM,"CC1CC(=O)NN=C1c1ccc(OCC(F)(F)CO)c(F)c1F (centres unmarked) [Example 108, 6-[4-(2,2-Difluoro-3-hydroxypropoxy)-2,3-difluorophenyl]-5-methyl-4,5-dihydro-2H-pyridazin-3-one]"
4,3.3 nM,"C=Cc1c(OCC(F)(F)CO)ccc(C2=NNC(=O)CC2C)c1F (centres unmarked) [Example 114, 6-[4-(2,2-Difluoro-3-hydroxypropoxy)-2-fluoro-3-vinylphenyl]-5-methyl-4,5-dihydro-2H-pyridazin-3-one]"
5,< 1 nM,"C[C@@H]1CC(=O)NN=C1c1ccc(OCC(C)(C)O)c(Cl)c1F [Example 118, (5R)-(−)-6-[3-chloro-2-fluoro-4-(2-hydroxy-2-methylpropoxy)phenyl]-5-methyl-4,5-dihydro-2H-pyridazin-3-one]"
6,2.9 nM,"C[C@@H]1CC(=O)NN=C1c1cc(F)c(OCC2(O)CC2)c(Cl)c1 [Example 119, (5R)-(−)-6-{3-chloro-5-fluoro-4-[(1-hydroxycyclopropyl)methoxy]phenyl}-5-methyl-4,5-dihydro-2H-pyridazin-3-one]"
7,4.1 nM,"C[C@@H]1CC(=O)NN=C1c1ccc(OCC(C)(C)CO)c(Cl)c1F [Example 122, (5R)-(−)-6-[3-Chloro-2-fluoro-4-(3-hydroxy-2,2-dimethylpropoxy)phenyl]-5-methyl-4,5-dihydro-2H-pyridazin-3-one]"
8,3.3 nM,"C[C@@H]1CC(=O)NN=C1c1ccc(OCC2(O)CC2)c(F)c1F [Example 123, (5R)-(−)-6-[2,3-Difluoro-4-[(1-hydroxycyclopropyl)methoxy]phenyl]-5-methyl-4,5-dihydro-2H-pyridazin-3-one]"
9,1.5 nM,"Cc1cc(C2=NNC(=O)C[C@H]2C)cc(F)c1OCC(C)(C)CO [Example 125, (5R)-(−)-6-[3-fluoro-4-(3-hydroxy-2,2-dimethylpropoxy)-5-methylphenyl]-5-methyl-4,5-dihydro-2H-pyridazin-3-one]"
10,3.6 nM,"Cc1cc(C2=NNC(=O)CC2C)c(O)c(Cl)c1OCC(C)(C)O (centres unmarked) [Example 129, 6-[3-Chloro-2-hydroxy-4-(2-hydroxy-2-methylpropoxy)-5-methylphenyl]-5-methyl-4,5-dihydro-2H-pyridazin-3-one]"
11,3 nM,"Cc1cc(C2=NNC(=O)CC2C)c(F)c(C)c1OCC(C)(C)O (centres unmarked) [Example 132, 6-[2-Fluoro-4-(2-hydroxy-2-methylpropoxy)-3,5-dimethylphenyl]-5-methyl-4,5-dihydro-2H-pyridazin-3-one]"
12,3.4 nM,"C=Cc1c(OCC(C)(C)O)ccc(C2=NNC(=O)CC2C)c1F (centres unmarked) [Example 133, 6-[2-Fluoro-4-(2-hydroxy-2-methylpropoxy)-3-vinylphenyl]-5-methyl-4,5-dihydro-2H-pyridazin-3-one]"
13,7.1 nM,"CCc1c(OCC(C)(C)O)ccc(C2=NNC(=O)CC2C)c1F (centres unmarked) [Example 134, 6-[3-Ethyl-2-fluoro-4-(2-hydroxy-2-methylpropoxy)phenyl]-5-methyl-4,5-dihydro-2H-pyridazin-3-one]"
14,6.8 nM,"C=Cc1c(OCCO)ccc(C2=NNC(=O)CC2C)c1F (centres unmarked) [Example 135, 6-[2-Fluoro-4-(2-hydroxyethoxy)-3-vinylphenyl]-5-methyl-4,5-dihydro-2H-pyridazin-3-one]"
15,5.2 nM,"Cc1c(F)c(C2=NNC(=O)CC2C)cc(Cl)c1OCC(C)(C)CO (centres unmarked) [Example 136, 6-[5-Chloro-2-fluoro-4-(3-hydroxy-2,2-dimethylpropoxy)-3-methylphenyl]-5-methyl-4,5-dihydro-2H-pyridazin-3-one]"
16,< 1 nM,"Cc1cc(C2=NNC(=O)CC2C)c(F)c(Cl)c1OCC(C)(C)CO (centres unmarked) [Example 137, 6-[3-chloro-2-fluoro-4-(3-hydroxy-2,2-dimethylpropoxy)-5-methylphenyl]-5-methyl-4,5-dihydro-2H-pyridazin-3-one]"
17,2.7 nM,"CC1CC(=O)NN=C1c1cc(F)c(OCC(C)(C)CO)c(Cl)c1F (centres unmarked) [Example 139, 6-[3-Chloro-2,5-difluoro-4-(3-hydroxy-2,2-dimethylpropoxy)phenyl]-5-methyl-4,5-dihydro-2H-pyridazin-3-one]"

# More lines, now with the values behind:
row,SMILES,IC50
1,"CC1CC(=O)NN=C1c1cc(Cl)c(OCC(C)(C)CCO)c(Cl)c1 (centres unmarked) [Example 100, 6-[3,5-dichloro-4-(4-hydroxy-2,2-dimethylbutoxy)phenyl]-5-methyl-4,5-dihydro-2H-pyridazin-3-one]",1.6 nM
2,"Cc1cc(C2=NNC(=O)CC2C)cc(F)c1OCC(C)(C)CCO (centres unmarked) [Example 101, 6-[3-Fluoro-4-(4-hydroxy-2,2-dimethylbutoxy)-5-methylphenyl]-5-methyl-4,5-dihydro-2H-pyridazin-3-one]",7.5 nM
3,"CC1CC(=O)NN=C1c1ccc(OCC(C)(C)CCO)c(F)c1F (centres unmarked) [Example 102, 6-[2,3-Difluoro-4-(4-hydroxy-2,2-dimethylbutoxy)phenyl]-5-methyl-4,5-dihydro-2H-pyridazin-3-one]",3.4 nM
4,"CC1CC(=O)NN=C1c1ccc(OCC(C)(C)CCO)c(Cl)c1F (centres unmarked) [Example 103, 6-[3-Chloro-2-fluoro-4-(4-hydroxy-2,2-dimethylbutoxy)phenyl]-5-methyl-4,5-dihydro-2H-pyridazin-3-one]",2.6 nM
5,"CC1CC(=O)NN=C1c1ccc(OCC(C)(C)O)c(C#N)c1F (centres unmarked) [Example 105, 2-Fluoro-6-(2-hydroxy-2-methylpropoxy)-3-(4-methyl-6-oxo-4,5-dihydro-1H-pyridazin-3-yl)benzonitrile]",9 nM
6,"CC1CC(=O)NN=C1c1cc(Cl)c(OCC(F)(F)CO)c(Cl)c1 (centres unmarked) [Example 109, 6-[3,5-dichloro-4-(2,2-difluoro-3-hydroxypropoxy)phenyl]-5-methyl-4,5-dihydro-2H-pyridazin-3-one]",1.6 nM
7,"CC1CC(=O)NN=C1c1ccc(OCC(F)(F)CO)c(Cl)c1F (centres unmarked) [Example 110, 6-[3-Chloro-4-(2,2-difluoro-3-hydroxypropoxy)-2-fluorophenyl]-5-methyl-4,5-dihydro-2H-pyridazin-3-one]",7.9 nM
8,"CC1CC(=O)NN=C1c1cc(F)c(OCC(F)(F)CO)c(Cl)c1 (centres unmarked) [Example 111, 6-[3-Chloro-4-(2,2-difluoro-3-hydroxypropoxy)-5-fluorophenyl]-5-methyl-4,5-dihydro-2H-pyridazin-3-one]",3 nM
9,"CC1CC(=O)NN=C1c1ccc(OCC(F)(F)CO)c(Br)c1F (centres unmarked) [Example 112, 6-[3-bromo-4-(2,2-difluoro-3-hydroxypropoxy)-2-fluorophenyl]-5-methyl-4,5-dihydro-2H-pyridazin-3-one]",2.3 nM
10,"Cc1cc(C2=NNC(=O)CC2C)cc(Cl)c1OCC(F)(F)CO (centres unmarked) [Example 113, 6-[3-chloro-4-(2,2-difluoro-3-hydroxypropoxy)-5-methylphenyl]-5-methyl-4,5-dihydro-2H-pyridazin-3-one]",1.1 nM
11,"Cc1c(OCC(F)(F)CO)ccc(C2=NNC(=O)CC2C)c1O (centres unmarked) [Example 115, 6-[4-(2,2-difluoro-3-hydroxypropoxy)-2-hydroxy-3-methylphenyl]-5-methyl-4,5-dihydro-2H-pyridazin-3-one]",5.9 nM
12,"Cc1cc(C2=NNC(=O)C[C@H]2C)cc(Cl)c1OCCO [Example 116, (5R)-(−)-6-[3-chloro-4-(2-hydroxyethoxy)-5-methylphenyl]-5-methyl-4,5-dihydro-2H-pyridazin-3-one]",4.3 nM
13,"C[C@@H]1CC(=O)NN=C1c1cc(F)c(OCC(C)(C)O)c(F)c1 [Example 117, (5R)-(−)-6-[3,5-Difluoro-4-(2-hydroxy-2-methylpropoxy)phenyl]-5-methyl-4,5-dihydro-2H-pyridazin-3-one]",3 nM
14,"Cc1c(OCC(F)(F)CO)ccc(C2=NNC(=O)C[C@H]2C)c1F [Example 120, (5R)-(−)-6-[4-(2,2-difluoro-3-hydroxypropoxy)-2-fluoro-3-methylphenyl]-5-methyl-4,5-dihydro-2H-pyridazin-3-one]",2.4 nM
15,"C[C@@H]1CC(=O)NN=C1c1cc(F)c(OCCCO)c(F)c1 [Example 121, (5R)-(−)-6-[3,5-Difluoro-4-(3-hydroxypropoxy)phenyl]-5-methyl-4,5-dihydro-2H-pyridazin-3-one]",3.8 nM
16,"C[C@@H]1CC(=O)NN=C1c1ccc(OCC(C)(C)O)c(F)c1F [Example 124, (5R)-(−)-6-[2,3-difluoro-4-(2-hydroxy-2-methylpropoxy)phenyl]-5-methyl-4,5-dihydro-2H-pyridazin-3-one]",2.3 nM
17,"C[C@@H]1CC(=O)NN=C1c1ccc(OCCO)c(Cl)c1F [Example 126, (5R)-(−)-6-[3-Chloro-2-fluoro-4-(2-hydroxyethoxy)phenyl]-5-methyl-4,5-dihydro-2H-pyridazin-3-one]",2.9 nM
18,"C[C@@H]1CC(=O)NN=C1c1cc(Cl)c(OCC(C)(C)CO)c(Br)c1 [Example 127, (5R)-(−)-6-[3-bromo-5-chloro-4-(3-hydroxy-2,2-dimethylpropoxy)phenyl]-5-methyl-4,5-dihydro-2H-pyridazin-3-one]",< 1 nM
19,"Cc1c(O)c(C2=NNC(=O)CC2C)cc(Cl)c1OCC(C)(C)O (centres unmarked) [Example 130, 6-[5-Chloro-2-hydroxy-4-(2-hydroxy-2-methylpropoxy)-3-methylphenyl]-5-methyl-4,5-dihydro-2H-pyridazin-3-one]",7 nM
20,"CC1CC(=O)NN=C1c1cc(F)c(OCC(C)(C)O)c(Cl)c1F (centres unmarked) [Example 131, 6-[3-chloro-2,5-difluoro-4-(2-hydroxy-2-methylpropoxy)phenyl]-5-methyl-4,5-dihydro-2H-pyridazin-3-one]",1 nM
21,"Cc1cc(C2=NNC(=O)CC2C)c(F)c(C)c1OCC(C)(C)CO (centres unmarked) [Example 138, 6-[2-Fluoro-4-(3-hydroxy-2,2-dimethylpropoxy)-3,5-dimethylphenyl]-5-methyl-4,5-dihydro-2H-pyridazin-3-one]",3.9 nM
